Assay [1] concerns the target soluble human BACE1 catalytic domain (Homo sapiens (Human), UniProt P56817). Kind of assay: BACE1 HTRF FRET Assay. Particulars: Ki calculated from IC50 using the Cheng-Prusoff equation. The format is biochemical. From the text:
Na^+-Acetate pH 5.0; 1% Brij-35; Glycerol; Dimethyl Sulfoxide (DMSO); Recombinant human soluble BACE1 catalytic domain (>95% pure); APP Swedish mutant peptide substrate (QSY7-APP^swe-Eu): QSY7-[…]-Europium-amide.
A homogeneous time-resolved FRET assay can be used to determine IC50 values for inhibitors of the soluble human BACE1 catalytic domain. This assay monitors the increase of 620 nm fluorescence that resulted from BACE1 cleavage of an APPswedish APP^swe mutant peptide FRET substrate (QSY7-[…]-Europium-amide). This substrate contains an N-terminal QSY7 moiety that serves as a quencher of the C-terminal Europium fluorophore (620 nm Em). In the absence of enzyme activity, 620 nm fluorescence is low in the assay and increased linearly over 3 hours in the presence of uninhibited BACE1 enzyme Inhibition of BACE1 cleavage of the QSY7-APP^swe-Eu substrate by inhibitors is manifested as a suppression of 620 nm fluorescence.
Reactions are initiated by addition of 10 μl of 600 nM QSY7-APP^swe-Eu substrate (200 nM final) to give a final reaction volume of 30 μl in a 384 well Nunc HTRF plate. The reactions are incubated at 30° C. for 1.5 hours. The 620 nm fluorescence is then read on a Rubystar HTRF plate reader (BMG Labtechnologies) using a […] delay followed by a 400 millisecond acquisition time window. Inhibitor IC50 values are derived from non-linear regression analysis of concentration response curves.

For assay [2], the target named is purified human autoBACE-2 (Homo sapiens, UniProt Q9Y5Z0). Kind of assay: BACE-2 Assay (BACE-HTRF assay). Format: biochemical. The following applies: Ki calculated from IC50 using the Cheng-Prusoff equation; read-out: BACE2 Ki. As to the method: Following laser excitation of sample wells at 320 nm, the fluorescence signal at 620 nm is collected for 400 ms following a 50 μs delay on a RUBYstar HTRF plate reader (BMG Labtechnologies). Raw RFU data is normalized to maximum (1.0 nM BACE/DMSO) and minimum (no enzyme/DMSO)RFU values. […] The Ki values are calculated from the IC50 using the Cheng-Prusoff equation.
Chain of purified human autoBACE-2 (Q9Y5Z0 63-518 limits assumed): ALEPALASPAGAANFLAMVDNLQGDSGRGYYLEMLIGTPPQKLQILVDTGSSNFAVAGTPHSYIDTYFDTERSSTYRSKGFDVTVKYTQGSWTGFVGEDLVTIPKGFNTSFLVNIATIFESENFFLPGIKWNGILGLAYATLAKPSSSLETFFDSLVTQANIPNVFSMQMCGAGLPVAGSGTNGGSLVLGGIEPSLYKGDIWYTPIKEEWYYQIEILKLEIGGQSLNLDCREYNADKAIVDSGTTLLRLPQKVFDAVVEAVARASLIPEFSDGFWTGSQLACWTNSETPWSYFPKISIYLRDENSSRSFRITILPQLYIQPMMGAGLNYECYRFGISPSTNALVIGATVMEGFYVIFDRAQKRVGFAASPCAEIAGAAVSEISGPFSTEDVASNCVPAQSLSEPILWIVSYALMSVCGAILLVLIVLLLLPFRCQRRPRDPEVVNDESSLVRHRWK

pKi: −log10 of the molar value.

Chain of soluble human BACE1 catalytic domain (P56817 75-416): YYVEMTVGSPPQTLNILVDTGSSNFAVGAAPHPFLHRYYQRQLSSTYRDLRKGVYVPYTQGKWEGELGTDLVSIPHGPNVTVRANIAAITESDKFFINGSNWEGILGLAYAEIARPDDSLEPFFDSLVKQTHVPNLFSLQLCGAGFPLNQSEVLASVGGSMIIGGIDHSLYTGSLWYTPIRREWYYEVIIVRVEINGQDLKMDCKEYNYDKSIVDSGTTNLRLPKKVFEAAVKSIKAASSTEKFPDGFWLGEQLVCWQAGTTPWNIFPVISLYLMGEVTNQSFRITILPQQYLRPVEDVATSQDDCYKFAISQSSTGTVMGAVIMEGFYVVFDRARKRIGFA

On to `CN1C(=N)N[C@]2(c3cc(NC(=O)c4ccc(C(F)(F)F)cn4)ccc3F)COC[C@@H]2S1(=O)=O` [Example 6a], for which the pKi is 6.45 in assay [1] and 6.33 in assay [2].
Taken in the same sequence, the figures for `CN1C(=N)NC2(c3ccccc3F)COCC2S1(=O)=O` (centres unmarked) [Example 6f] were 5.11 and 5.38.
Taken in the same sequence, the figures for `COc1cnc(C(=O)Nc2ccc(F)c([C@]34COC[C@H]3S(=O)(=O)N(C)C(=N)N4)c2)c(F)c1` [Example 6e] were 7.80 and 8.16.
Taken in the same sequence, the figures for `CN1C(=N)N[C@]2(c3cc(NC(=O)c4ccc(Cl)cn4)ccc3F)COC[C@@H]2S1(=O)=O` [Example 5a] were 6.71 and 7.26.
Turning to `COc1ccc(C(=O)Nc2ccc(F)c([C@@]34COC[C@@H]3S(=O)(=O)N(C)C(=N)N4)c2)nc1` [Example 3a], the figures for the pKi in assay [1] and in assay [2] were 6.06 and 6.32, respectively.
Taken in the same sequence, the figures for `CN1C(=N)N[C@@]2(c3cc(NC(=O)c4cnc(C(F)(F)F)cn4)ccc3F)COC[C@H]2S1(=O)=O` [Example 6d] were 7.55 and 7.26.
Taken in the same sequence, the figures for `COc1ccc(C(=O)Nc2ccc(F)c([C@]34COC[C@H]3S(=O)(=O)N(C)C(=N)N4)c2)nc1` [Example 3] were 7.74 and 8.09.
For `CN1C(=N)N[C@@]2(c3cc(NC(=O)c4ccc(F)cn4)ccc3F)COC[C@H]2S1(=O)=O` [Example 1], the pKi was 7.89 in assay [1] and 8.72 in assay [2].
As for `COc1cnc(C(=O)Nc2ccc(F)c([C@]34COC[C@H]3S(=O)(=O)N(C)C(=N)N4)c2)cn1` [Example 4], the pKi in assay [1] was 7.27; in assay [2] it was 7.32.
Taken in the same sequence, the figures for `COc1cnc(C(=O)Nc2ccc(F)c([C@@]34COC[C@@H]3S(=O)(=O)N(C)C(=N)N4)c2)cn1` [Example 4a] were 5.88 and 5.82.
Taken in the same sequence, the figures for `CN1C(=N)N[C@@]2(c3cc(NC(=O)c4ccc(C(F)(F)F)cn4)ccc3F)COC[C@H]2S1(=O)=O` [Example 6] were 8.01 and 7.71.
As for `CN1C(=N)N[C@]2(c3cc(NC(=O)c4ccc(F)cn4)ccc3F)COC[C@@H]2S1(=O)=O` [Example 1a], the pKi in assay [1] was 5.45; in assay [2], 6.31.
Consider `CN1C(=N)N[C@@]2(c3cc(NC(=O)c4ccc(Cl)cn4)ccc3F)COC[C@H]2S1(=O)=O` [Example 5], for which the pKi in assay [1] was 8.29; in assay [2], 8.89.
